According to article PMC6635827 (Drug Design, Development and Therapy, 2019):
Read-outs that look alike come from different tables or passages of the source. Each block holds one compound with its values, some of them ahead of it.

Experiments:
mushroom tyrosinase [1] = molecular target: T1, mushroom tyrosinase (Agaricus bisporus, UniProt C7FF04); test: Mushroom tyrosinase inhibition assay; type: biochemical; conditions: for inhibition at 30 µM: read-out: percent inhibition
tyrosinase = test: Tyrosinase zymography; type: biochemical, mushroom; conditions: L-DOPA staining, compared to untreated control
mushroom tyrosinase [2] = molecular target: T1, mushroom tyrosinase; conditions: cited from earlier work

T1 sequence (C7FF04 1-392): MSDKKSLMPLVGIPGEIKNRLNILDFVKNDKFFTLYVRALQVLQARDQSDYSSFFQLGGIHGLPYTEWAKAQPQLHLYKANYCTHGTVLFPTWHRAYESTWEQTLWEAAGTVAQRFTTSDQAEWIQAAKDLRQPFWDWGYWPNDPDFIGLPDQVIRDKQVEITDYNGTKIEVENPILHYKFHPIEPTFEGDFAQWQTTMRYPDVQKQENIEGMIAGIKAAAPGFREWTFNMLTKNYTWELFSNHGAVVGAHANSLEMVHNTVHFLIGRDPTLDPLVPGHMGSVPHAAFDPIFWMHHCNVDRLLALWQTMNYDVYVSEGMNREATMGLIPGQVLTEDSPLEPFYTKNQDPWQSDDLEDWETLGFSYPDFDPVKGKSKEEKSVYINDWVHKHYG

IC50 (mushroom tyrosinase [1]): 24.5 µM
band intensity on zymogram (inhibitory effect on tyrosinase activity) (tyrosinase): lightest bands
SMILES: CC(=O)Nc1ccc(N=Nc2c(N)nc(N)nc2Cl)cc1 [Compound 1d, N-(4-((2,4-diamino-6-chloropyrimidin-5-yl)diazenyl)phenyl) acetamide]

inhibition at 30 µM (mushroom tyrosinase [1]): 55.1%
SMILES: COc1ccc(N=Nc2c(N)nc(N)nc2Cl)cc1 [Compound 1e, 6-chloro-5-((4-methoxyphenyl)diazenyl) pyrimidine-2,4-diamine]

SMILES: O=c1cc[nH]c(=S)[nH]1 [thiouracil]
IC50 (mushroom tyrosinase [2]): 128 µM
Inhibition type (mushroom tyrosinase [2]): noncompetitive inhibitors

SMILES: Cc1cc(=O)[nH]c(=S)[nH]1 [methylthiouracil]
IC50 (mushroom tyrosinase [2]): 142 µM
Inhibition type (mushroom tyrosinase [2]): noncompetitive inhibitors

inhibition at 30 µM (mushroom tyrosinase [1]): 23.7%
SMILES: Nc1nc(N)c(N=Nc2ccc([N+](=O)[O-])cc2)c(Cl)n1 [Compound 1b, 6-chloro-5-((4-nitrophenyl)diazenyl) pyrimidine-2,4-diamine]

band intensity on zymogram (inhibitory effect on tyrosinase activity) (tyrosinase): minimal inhibitory effect
SMILES: COc1ccc(N=Nc2c(N)nc(N)nc2N)cc1 [Compound 2d, 5-((4-methoxyphenyl)diazenyl) pyrimidine-2,4,6-triamine]

band intensity on zymogram (inhibitory effect on tyrosinase activity) (tyrosinase): lightest bands
SMILES: Nc1nc(N)c(N=Nc2ccccc2[N+](=O)[O-])c(Cl)n1 [Compound 1a, 6-chloro-5-((2-nitrophenyl)diazenyl) pyrimidine-2,4-diamine]
